In patent publication US9375005B2, “5-halogenopyrazole indanyl carboxamides” (BAYER CROPSCIENCE AG, priority 2012, dated 2016):
Where two headings read alike, the source gives them in different places.

Tests used:
Alternaria brassicae = assay: In vivo preventive test on Alternaria brassicae (leaf spot on radish); details: radish plants sprayed 24 h before contamination, grading 6 days after contamination vs control plants
Procedure: Radish plants (“Pernod Clair” variety), sown in starter cups on a 50/50 peat soil-pozzolana substrate and grown at 17° C., are treated at the cotyledon stage by spraying with the active ingredient prepared as described above. Plants, used as controls, are treated with the mixture of acetone/tween/DMSO/water not containing the active material. After 24 hours, the plants are contaminated by spraying the cotyledons with an aqueous suspension of Alternaria brassicae spores (50 000 spores per ml). The spores are collected from a 15-day-old culture. […] Grading (% of efficacy) is carried out 6 days after the contamination, in comparison with the control plants.

Puccinia recondita = assay: In vivo preventive test on Puccinia recondita (brown rust on wheat); details: wheat plants sprayed 24 h before contamination, grading 12 days after contamination
Procedure: Plants, used as controls, are treated with the mixture of acetone/tween/DMSO/water not containing the active material. After 24 hours, the plants are contaminated by spraying the leaves with an aqueous suspension of Puccinia recondita spores (100 000 spores per ml). […] Grading (% of efficacy) is carried out 12 days after the contamination, in comparison with the control plants.

Septoria tritici = assay: In vivo preventive test on Septoria tritici (leaf spot on wheat); details: dose 500 ppm; wheat plants sprayed 24 h before contamination; grading 24 days after contamination
Procedure: Wheat plants (“Scipion” variety), sown in starter cups on a 50/50 peat soil-pozzolana substrate and grown at 22° C., are treated at the 1-leaf stage (10 cm height) by spraying with the active ingredient prepared as described above. Plants, used as controls, are treated with the mixture of acetone/tween/DMSO/water not containing the active material. After 24 hours, the plants are contaminated by spraying the leaves with an aqueous suspension of cryopreserved Septoria tritici spores (500 000 spores per ml). […] Grading (% of efficacy) is carried out 24 days after the contamination, in comparison with the control plants.

Sphaerotheca fuliginea = assay: In vivo preventive test on Sphaerotheca fuliginea (powdery mildew on cucurbits); details: dose 500 ppm; gherkin plants sprayed 24 h before contamination; grading 12 days after contamination
Procedure: Gherkin plants (“Vert petit de Paris” variety), sown in starter cups on a 50/50 peat soil-pozzolana substrate and grown at 24° C., are treated at the Z11 cotyledon stage by spraying with the active ingredient prepared as described above. Plants, used as controls, are treated with the mixture of acetone/tween/DMSO/water not containing the active material. After 24 hours, the plants are contaminated by spraying the cotyledons with an aqueous suspension of Sphaerotheca fuliginea spores (100 000 spores per ml). The spores are collected from infected plants. The contaminated to gherkin plants are incubated at about 20° C. and at 70-80% relative humidity. Grading (% of efficacy) is carried out 12 days after the contamination, in comparison with the control plants.

Uromyces appendiculatus = assay: In vivo preventive test on Uromyces appendiculatus (bean rust); details: bean plants sprayed 24 h before contamination, grading 11 days after contamination
How it was run: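 Saxa bean plants grown at 24° C were sprayed at the 2-leaf stage (9 cm) with compound in acetone/tween/DMSO/water; controls got solvent mix only. Leaves inoculated 24 h later with U. appendiculatus spores (150 000 spores/ml). Efficacy (%) graded 11 days post-inoculation versus controls.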

[1] = Measurement of log P values by HPLC on reversed phase columns (EEC directive 79/831 Annex V.A8); type: physicochemical
Botrytis cinerea = assay: In vivo preventive test on Botrytis cinerea (grey mould); details: gherkin plants sprayed 24 h before contamination, grading 4 to 5 days after contamination
Procedure: Gherkin plants (“Vert petit de Paris” variety), sown in starter cups on a 50/50 peat soil-pozzolana substrate and grown at 24° C., are treated at the Z11 cotyledon stage by spraying with the active ingredient prepared as described above. Plants, used as controls, are treated with the mixture of acetone/tween/DMSO/water not containing the active material. After 24 hours, the plants are contaminated by spraying the cotyledons with an aqueous suspension of cryopreserved Botrytis cinerea spores (50 000 spores per ml). The spores are suspended in a nutrient solution composed of 10 g/L of PDB, 50 g/L of D-Fructose, 2 g/L of NH4NO3 and 1 g/L of KH2PO4. […] Grading (% of efficacy) is carried out 4 to 5 days after the contamination, in comparison with the control plants.

Pyrenophora teres = assay: In vivo preventive test on Pyrenophora teres (net blotch on barley); details: barley plants sprayed 24 h before contamination, grading 14 days after contamination
Procedure: Barley plants (“Plaisant” variety), sown in starter cups on a 50/50 peat soil-pozzolana substrate and grown at 22° C., are treated at the 1-leaf stage (10 cm height) by spraying with the active ingredient prepared as described above. Plants, used as controls, are treated with the mixture of acetone/tween/DMSO/water not containing the active material. After 24 hours, the plants are contaminated by spraying the leaves with an aqueous suspension of Pyrenophora teres spores (12 000 spores per ml). The spores are collected from a 12-day-old culture. […] Grading (% of efficacy) is carried out 14 days after the contamination, in comparison with the control plants.

Pyricularia oryzae = type: in vivo; details: rice plants sprayed 24 h before contamination, grading 6 days after contamination
Phakopsora pachyrhizi = assay: In vivo preventive Phakopsora test (soybeans); details: concentration 10 ppm of active ingredient; soybean plants; evaluated 7 days after inoculation

Structure (SMILES) | Eff. % (Alternaria brassicae; dose 500 ppm) | Eff. % (Puccinia recondita; dose 500 ppm) | Eff. % (Septoria tritici) | Eff. % (Sphaerotheca fuliginea) | Eff. % (Uromyces appendiculatus; dose 500 ppm) | logP ([1]; method marked [a]) | Eff. % (Pyrenophora teres; dose 500 ppm) | other results
CC(C)C1Cc2c(NC(=O)c3c(C(F)F)nn(C)c3F)cccc2C1(C)C (centres unmarked) [Example 5] | 100% | 100% | 93% | 100% | 100% | 4.69[a] | – | –
Cn1nc(C(F)F)c(C(=O)Nc2cccc3c2CCC32CC2)c1F [Example 11] | 92% | 98% | – | – | 100% | 3.33[a] | 80% | Eff. % (Botrytis cinerea; dose 500 ppm): 98%
CC1CC(C)(C)c2c(C3CC3)ccc(NC(=O)c3c(C(F)F)nn(C)c3F)c21 (centres unmarked) [Example 17] | – | 94% | – | – | 97% | 4.35[a]; | 97% | Eff. % (Botrytis cinerea; dose 500 ppm): 98%; logP ([1]; method marked [b]): 4.28[b]
Cc1ccc(NC(=O)c2c(C(F)F)nn(C)c2F)c2c1C(C)(C)CC2C (centres unmarked) [Example 19] | 75% | 94% | – | – | 77% | 3.99[a]; | 97% | Eff. % (Botrytis cinerea; dose 500 ppm): 98%; logP ([1]; method marked [b]): 3.92[b]
CC1c2cccc(NC(=O)c3c(C(F)F)nn(C)c3F)c2CC12CCCC2 (centres unmarked) [Example 32] | 93% | 100% | 90% | 98% | 100% | 4.39[a] | 97% | –
CC1c2cccc(NC(=O)c3c(C(F)F)nn(C)c3Cl)c2CC12CCCC2 (centres unmarked) [Example 33, 5-chloro-3-(difluoromethyl)-1-methyl-N-(1′-methyl-1′,3′-dihydrospiro[cyclopentane-1,2′-inden]-4′-yl)-1H-pyrazole-4-carboxamide] | 86% | 93% | 90% | 95% | 100% | – | – | chromatographic logP ([1]; pH 2.7): 4.63
CC1CC(C(C)C)c2cccc(NC(=O)c3c(C(F)F)nn(C)c3F)c21 (centres unmarked) [Example 34] | 93% | 97% | 85% | 95% | 100% | 4.19[a] | 97% | –
CC1CC(C(C)C)c2cccc(NC(=O)c3c(C(F)F)nn(C)c3Cl)c21 (centres unmarked) [Example 35] | 79% | 97% | 80% | – | 100% | 4.46[a] | – | –
Cn1nc(C(F)F)c(C(=O)Nc2cccc3c2CC(Cc2ccccc2)C3)c1Cl (centres unmarked) [Example 39] | 79% | – | – | – | 100% | 4.41[a] | – | Eff. % (Pyricularia oryzae; dose 500 ppm): 86%
CC1CC(C)c2c(NC(=O)c3c(C(F)F)nn(C)c3Cl)cccc21 (centres unmarked) [Example 44] | – | 100% | – | – | 100% | – | – | Eff. % (Phakopsora pachyrhizi): 98%
CC1Cc2c(NC(=O)c3c(C(F)F)nn(C)c3F)cccc2C1(C)C (centres unmarked) [Example 45] | – | 100% | – | 100% | 100% | 3.94[a] | – | Eff. % (Pyricularia oryzae; dose 500 ppm): 83%
CC1CC2(CC2)c2cccc(NC(=O)c3c(C(F)F)nn(C)c3F)c21 (centres unmarked) [Example 50] | 93% | 98% | – | 98% | 100% | 3.55[a] | 80% | Eff. % (Botrytis cinerea; dose 500 ppm): 100%
CC1CC2(CC2)c2cccc(NC(=S)c3c(C(F)F)nn(C)c3F)c21 (centres unmarked) [Example 60] | – | – | 93% | 100% | 100% | 3.71[a] | 100% | Eff. % (Botrytis cinerea; dose 500 ppm): 100%
CC1c2c(NC(=O)c3c(C(F)F)nn(C)c3F)cccc2C(C)(C)C1C (centres unmarked) [Example 64] | 100% | 100% | 93% | 100% | 100% | 3.96[a] | 97% | Eff. % (Botrytis cinerea; dose 500 ppm): 100%
CC1CC(CC(C)(C)C)c2cccc(NC(=O)c3c(C(F)F)nn(C)c3F)c21 (centres unmarked) [Example 70] | 89% | 98% | 79% | 100% | 100% | 4.92[a] | – | –
Cn1nc(C(F)F)c(C(=O)Nc2cccc3c2CC(C)(C)C3)c1Cl [Example 73] | 83% | 100% | 71% | 100% | 100% | 3.21[a] | – | –
CC1c2cccc(NC(=O)c3c(C(F)F)nn(C)c3F)c2CC1(C)C (centres unmarked) [Example 78] | 95% | 98% | 88% | 100% | 100% | 3.92[a] | – | Eff. % (Botrytis cinerea; dose 500 ppm): 75%
CC(C)CC1CC(C)c2c(NC(=O)c3c(C(F)F)nn(C)c3F)cccc21 (centres unmarked) [Example 80] | 97% | 98% | 86% | 98% | 100% | 4.71[a] | 97% | –
CCC1Cc2c(NC(=O)c3c(C(F)F)nn(C)c3F)cccc2C1(C)C (centres unmarked) [Example 86] | 96% | 100% | 93% | – | 100% | 4.34[a] | 92% | –
Cn1nc(C(F)F)c(C(=O)Nc2cccc3c2C(C)(C)CC3)c1Cl [Example 89] | – | – | – | – | – | 3.53[a] | – | Eff. % (Pyricularia oryzae; dose 100 ppm): 93%
CCC1Cc2c(NC(=O)c3c(C(F)F)nn(C)c3Cl)cccc2C1(C)C (centres unmarked) [Example 90] | 90% | 100% | 79% | 100% | 100% | 4.61[a] | 75% | –
CCC1(CC)Cc2c(NC(=O)c3c(C(F)F)nn(C)c3F)cccc2C1C (centres unmarked) [Example 101] | 100% | 98% | 88% | 100% | 100% | 4.67[a] | – | –
CC1CC2(CCCC2)c2cccc(NC(=O)c3c(C(F)F)nn(C)c3F)c21 (centres unmarked) [Example 103] | – | – | – | – | – | 4.39[a] | – | Eff. % (Botrytis cinerea; dose 100 ppm): 100%; Eff. % (Pyrenophora teres; dose 100 ppm): 80%; Eff. % (Puccinia recondita; dose 100 ppm): 98%; Eff. % (Uromyces appendiculatus; dose 100 ppm): 100%
CC1CC2(CCCCC2)c2cccc(NC(=O)c3c(C(F)F)nn(C)c3F)c21 (centres unmarked) [Example 107] | – | – | – | – | – | 4.73[a] | – | Eff. % (Alternaria brassicae; dose 100 ppm): 97%; Eff. % (Botrytis cinerea; dose 100 ppm): 100%; Eff. % (Puccinia recondita; dose 100 ppm): 100%; Eff. % (Uromyces appendiculatus; dose 100 ppm): 100%
